Key:
[1] = tested on: isolated ileum of an experimental animal; test: Anaphylactic contraction of isolated ileum induced by antigen (ovoalbumin); details: antigen (10 μg/ml), average ±SEM, at least 3 animals; read-out: Stimulation with antigen IC50
Experimental: (§1) Female and male experimental animals were used, weighing between 300 and 400 g, they came from Oswaldo Cruz Foundation's Center of Laboratory Animal Raising. The procedures involving the animals were examined and approved by Oswaldo Cruz Foundation's Committee of Animal Ethics (CEUA-FIOCRUZ, Licenca no. 00085-02). The animals were sensitized through a subcutanous injection with a mixture of 50 μg ovoalbumin and 5 mg Al(OH)3. From fourteen to thirty days after the sensitization, the experimental, animal was sacrificed in a chamber of carbonic gas to have its abdomen open and the location of the ileocecal valve. At this point, the intestine was sectioned and a segment of the small intestine, about 20 cm (equivalent to the ileum) was carefully removed and internally washed with a warmed solution (37° C.) of Tyrode (Composition in mM) (NaCl 137; KCl 2.7; NaH2PO4 0.42; NaHCO3 11.9; MgCl2 0.5; CaCl2 1.8; glucose 5.6) to remove the fecal content. […].
(§2) About 3-cm ileum fragments were vertically mounted in 10 ml glass cuvettes, immersed in Tyrode's solution at 37° C., aerated with carbogen (O2, 95% and CO2, 5%) and supplemented with atropine according to the standard procedure. The tissue had one of its ends tied to a rod while the other end was coupled with a transductor after the transference from the rod to the cuvette. The contractions were isotonically registered (basal tension of 1 g) with the support of a transductor of displacement-force connected to a computerized system to capture data. After a 30 minute period of balance, each segment was repeatedly stimulated by histamine (1 μM) until response stabilization. To induce anaphylatic contraction, ileum segments from sensitized experimental animals were stimulated by ovoalbumin (10 μg/ml). […]. The results were presented as a percentage of inhibition calculated in relation to the contractive effect obtained from stimulated and non-treated preparations.
(§3) Concentration-response data were adjusted through non-linear regression curves with the assistence of a graphics software (GraphPad Prism, USA). The concentration of an antagonist needed to inhibit the contractive response to inhibit the contractive response after stimulation by histamine or antigen at 50% (IC50) was used to compare the anti-spasmodic potency. The values expressed as an average ± standard error of the mean and statistically analysed through the test of analysis variance (ANOVA), followed by the Newman-Keuls-Student test.

[2] = tested on: isolated ileum of an experimental animal; test: Contraction of isolated ileum induced by histamine; details: histamine (5 μM), average ±SEM, at least 3 animals; read-out: Stimulation with histamine IC50
Experimental: as §1, §2, §3

[3] = tested on: cutaneous sites of the dorsal region of adult Wistar rats; test: Local anesthetic activity, intradermal injection in dorsal skin, response to mechanical stimulation; assay type: in vivo; details: for time of anesthesia compared with lidocaine: doses from 0.5 to 4 μMol/site
Experimental: Female and male Wistar rats, weighing between 200 and 250 g, they came from Oswaldo Cruz Foundation's Center of Laboratory Animal Raising were used. The procedures involving the animals were examined and approved by Oswaldo Cruz Foundation's Committee of Animal Ethics (CEUA-FIOCRUZ, License number 00085-02). After brief anesthesia by exposure to the atmosphere enriched with […] animals were trichotomized dorsal region, where the […] injections with substances for test were performed; doses varied from 0.5 to 4 μMol/site, and vehicule (NaCl 0.9%) (negative control), the final volume was 50 μl. Each animal took six injections and four animals were used for each tested substance. The application points were mechanically estimulated with a tweezer in order to evaluate the integrity of sensitiveness. The site was considered not to be anesthesized whenever after the mechanical stimulation it was observed a local retraction of the skin, according to what had been previously reported. The evaluations began 10 minutes after intradermal injections had been taken, which continued every five minutes until it was obtained the cutaneous retraction response. The values (average±standard error of the mean, SEM) were expressed in terms of “Time of Anesthesia” in minutes.

[4] = tested on: experimental animal trachea; test: Relaxation of trachea pre-contracted by anaphylactic stimulation (ovoalbumin); details: pre-contracted with ovoalbumin (20 μg/ml), average±SEM, at least 3 animals; read-out: IC50, concentration necessary to relax in 50% the anaphylatic spasm of trachea
Experimental: Female and male experimental animals were used, weighing between 300 and 400 g, they came from Oswaldo Cruz Foundation's Center of Laboratory Animal Raising. The procedures involving the animals were examined and approved by Oswaldo Cruz Foundation's Committee of Animal Ethics (CEUA-FIOCRUZ, License number 00085-02). The animals were sensitized through a subcutaneous injection with a mixture of 50 μg ovoalbumin and 5 mg Al(OH)3. Fourteen to thirty days after the sensitization, the experimental animal was sacrificed in a chamber of carbonic gas to have its trachea removed. The trachea was transferred to a Petri dish containing Krebs solution (composition in mM) (NaCl-119; […] NaHCO3-25; […] The total segment was divided into fragments of about 3 to 4 rings that were sectioned at the extreme ending, the muscular part of the trachea. Each fragment had one of its ends tied to a rod while the other end was connected to an isometric transductor (U Basile, Italy) after the transference from the rod to a 10 ml glass cuvette. […] The contractions were registered with the […] of a computerized system of data capture (Letica, Spain). […] The results were shown as a percentage of relaxation in relation to the plateau of the anaphylatic pre-contraction. Concentration-response data were adjusted through non-linear regression curves with the […] of a graphics software (GraphPad Prism, USA). […] The values were expressed as an average± standard error of the mean and statistically analysed through the test of analysis variance (ANOVA), followed by the Newman-Keuls-Student test.

[5] = tested on: dorsal subcutaneous tissue of rats; test: Anaphylactic release of histamine by fragments of dorsal subcutaneous tissue; set-up: species or system Wistar rats; details: for IC50: 60 min pre-treatment, read-out: IC50, inhibition of histamine release caused by anaphylatic stimulus
Experimental: Female and male Wistar rats were used, weighing between 180 and 200 g, they came from Oswaldo Cruz Foundation's Center of Laboratory Animal Raising. The procedures involving the animals were examined and approved by Oswaldo Cruz Foundation's Committee of Animal Ethics (CEUA-FIOCRUZ, Port. 00085-02). The rats were sensitized with a subcutaneous injection containing a mixture of 50 μg ovalbumina plus 5 mg Al(OH)3. Fourteen days after the sensitization the animals were sacrificed in a chamber of CO2, to have their dorsal hypodermis removed which was fragmented into smaller segments of about 3 mm in a Petri dish containing PBS. The fragments were individually transferred to a dish with 48 pools containing 500 μl of Hanks with Ca^++ and Mg^++.
Five experimental groups were studied in quadruplicates:
I. Saline group, negative control, pools where the tissue was neither treated nor stimulated;
II. Ovoalbumin group, positive control, pools where the tissue was not treated but it was stimulated by ovoalbumin (300 μg/ml);
III. JM24-1 group, pools where the tissue was previously treated with JM24-1 before the stimulation with ovoalbumin (300 μg/ml);
IV. JM25-1 group, pools where the tissue was previously treated with JM25-1 before the stimulation with ovoalbumin (300 μg/ml);
V. JMF2-1 group, pools where the tissue was previously treated with JMF2-1 before the stimulation with ovoalbumin (300 μg/ml).
Treated and non-treated pools were kept at 37° C. in a metabolic incubator (atmosphere containing 95% O2 and 5% CO2) for 60 minutes before the antigenic challenge. After the addition of ovoalbumin (300 μg/ml) all the pools were incubated again in a metabolic oven for more than 60 minutes. After removal of tissue for drying and weighing, the culture medium was collected and acidified with perchloric acid 0.4 N being, after centrifugation 150×g for 10 min. stocked at −20° C. until the moment of fluorimetric quantifying of histamine, according to the previous work. The values were shown like nanograms of released histamine by mg of tissue (dry weight).

[6] = tested on: Na^+ currents in GH3 cells; test: Tonic block of Na+ currents in GH3 cells, whole cell patch clamp; assay type: cell-based, Rat
Experimental: Ion channel currents were recorded by means of a patch clamp technique. The cells cultured on the cover glass were placed in a chamber fixed to a microscope stage and continuously perfused with extracellular Saline (A) solution (in mM); 150 NaCl, 5 KCl, 1 MgCl2, 0.01 CaCl2, 1 EGTA, 10 HEPES, 2 BaCl2, 0.1 CdCl2, pH 7.4 at room temperature (22-25° C.) adjusted with NaOH. The cells were observed using phase contrast mode under an inverted microscope (Axiovert 100, Carl Zeiss, Oberkochem, D Germany). Tight-seal (>10 GΩ) whole cell voltage-clamp recordings were performed with an Axopatch-1D amplifier (Axon Instruments, San Mateo, Calif.). […] Fifteen minutes after rupture of the patch membrane, we started to record ion channel currents. Pulse protocols and data acquisition were controlled by Digidata 1320 interface (Axon Instruments, Palo Alto, Calif.), and acquired on a personal computer using Clampex 9 software. The Na^+ current recordings were filtered at 1 kHz and sampled at 8 kHz. About 26% of series resistance was electronically compensated. Drugs were applied to the recording chamber by gravity. Perfusion rate was maintained at 0.8-1.1 ml/min and bath volume was of 50 μl. […] Voltage-gated Na^+ currents were recorded from these cells in the presence or absence of treatment.

[7] = tested on: Swiss 44 mice; test: Convulsivant activity after intraperitoneal injection; assay type: in vivo; details: mouse, in vivo, ip
Experimental: Female and male Swiss 44 mice were used, weighing between 25 and 30 g, they came from Oswaldo Cruz Foundation's Center of Laboratory Animal Raising. The procedures involving the animals were examined and approved by Oswaldo Cruz Foundation's Committee of Animal Ethics (CEUA-FIOCRUZ, Act 00085-02). […] For each molecule, the necessary dose to induce a convulsive clinical Figure in 50% of the animals (DE50) was determined by linear regressive curves interpoled (GraphPad Prim, version 3.03).

[8] = tested on: sensitized experimental animals; test: Pulmonary eosinophil infiltrate after ovoalbumin aerosol challenge, bronchoalveolar lavage count; assay type: in vivo; details: 5% aerosol, 30 min, with ovoalbumin 1% plus 3 aerosolizations every 3 h; lavage 24 h after challenge
Experimental: The animals were sensitized through a cutaneous injection of a mixture with 50 μg ovoalbumin and 5 mg Al(OH)3, and challenged with ovoalbumin (1%) aerosol for 30 min 14 days afterwards, according to what was previously described. In order to avoid death of animals by anaphylatic asphyxia, all of them were treated intraperitonially with the anti-histaminic difenidramine (30 mg/kg) 30 minutes before being challenged.
Bronchoalveolar Lavage and Eosinophils Counting
All the animals were anesthesized terminally through an intraperitonial injection of pentobarbital (200 mg/kg) 24 h after the antigenic challenge, to wash the bronchoalveolar space according to the techniques previously described. Total leukocyte count were done after dilution of bronchoalveolar lavage samples in Turk liquid and counting in the Neubauer chamber with the assistance of direct-light microscopy. The differential eosinophil count was done also under direct-light microscopy, after centrifugation of samples of the lavage as well as its exposure to specific dyestuff (May-Grunwald-Giemsa dye).
The averages± standard error of the mean of the groups investigated were analyzed based on statistics through the test of variance analysis (ANOVA), followed by the Newman-Keuls-Student test.
Values, expressed in terms of “number of eosinophils×10^6/lavage” are presented as average±SEM in at least 7 animals. In the negative control group, animals previously sensitized were artificially-challenged through exposure to sterile saline (NaCl, 0.9%) aerosol. […] “*” represents the difference statistically significant (P<0.05), when the group treated and the positive control group were compared.

[9] = tested on: patients; details: cited from earlier work

Compound | IC50 [1] [µM] | IC50 [2] [µM] | time of anesthesia compared with lidocaine [3] | IC50 [4] [µM] | inhibition of anaphylactic histamine release, result in words ([5]; ovoalbumin (300 μg/ml)) | IC50 ([5]; ovoalbumin (300 μg/ml)) [µM] | IC50 ([6]; GH3 cells, holding potential −80 mV to +60 mV step pulse, read-out: IC50, blockade of Na+ currents) [µM] | 50% inhibitory concentration, times higher than lidocaine ([6]; ratio to lidocaine IC50) [times] | DE50, dose to induce convulsion in 50% of the animals [7] [mg/kg] | blocking the accumulation of eosinophils in the bronchoalveolar area [8] | Time of Anesthesia ([3]; 4 μMol/site intradermal, n=4, average±SEM) [min] | times more potent than lidocaine, histamine release ([5]; ratio to lidocaine) | attenuation of bronchospasm by histamine [9]
CCN(CC)CC(=O)Nc1cc(C)ccc1C [JM25-1, 2-dyethylamine-2′,5′-acetoxylidide] | 120 ± 10 | 140 ± 20 | significantly inferior | 130 ± 20 | concentrations comparable to that of lidocaine | 8.35 | – | – | – | – | – | – | –
CCN(CC)CC(=O)Nc1ccccc1C(F)(F)F [JMF2-1, 2-dyethylamine-2-trifluormetilacetotoluidide] | – | 100 ± 10 | significantly inferior | – | – | 0.16 | 25400 | 169 | 305 | equipotent to lidocaine | 28 ± 1 | about 29 times | –
CCCCOc1ccc(C(=O)CCN2CCCCC2)cc1 [dyclonine] | – | – | – | – | – | – | – | – | – | – | – | – | ineffective
